Measurements reported in US10954287B2, “Ras binding peptides and methods of use” (Ra Pharmaceuticals, Inc., priority 2016, dated 2021).
*1 amine or outer side, *2 acyl side, *3 side chain or, on linkers, in order; H or OH if unused. Where a SMILES comes first, the peptide text is derived from it. [ ]: non-standard residue; d: D form. ξ: configuration not given here. DAPTZAC2 = (S)-3-(4-(2-acrylamidoethyl)-1H-1,2,3-triazol-1-yl)-2-aminopropanoic acid, C=CC(=O)NCCc1cn(C[C@H](N[*:1])C(=O)[*:2])nn1; Trp(7-aza) = N[C@@H](Cc1c[nH]c2ncccc12)C(=O)O; NMePhe(4-F) = CN[C@@H](Cc1ccc(F)cc1)C(=O)O; Phg = N[C@H](C(=O)O)c1ccccc1; Tle = CC(C)(C)[C@H](N)C(=O)O; ξPhg = NC(C(=O)O)c1ccccc1; NMeA = CN[C@@H](C)C(=O)O; Pra = C#CC[C@H](N)C(=O)O; Nva = CCC[C@H](N)C(=O)O; AEEA = NCCOCCOCC(=O)O; Ahx = NCCCCCC(=O)O; Sar = CNCC(=O)O

system: GMPPNP-loaded H-Ras or GTP-loaded K-Ras; assay: Fluorescence polarization competition assay with TAMRA-labeled probe R4007; format: binding, human; conditions: 120 nM Ras, 30 nM probe R4007, 60 minutes at room temperature; read-out: Probe displacement (nM IC50)
Experimental: R4000 was evaluated for competition with a TAMRA labeled probe (R4007) based on peptide R4000. The assay was performed in 384-well black, non-binding plates (Greiner Bio-One, Monroe, N.C.). GMPPNP-loaded H-Ras or GTP-loaded K-Ras, diluted in FP assay buffer (20 mM Tris-HCl, pH 7.5, 50 mM NaCl, 5 mM MgCl2, 1 mM EDTA, 0.002% Triton-X-100) for a final concentration of 120 nM was incubated with 30 nM R4007 for 20 minutes at room temperature. R4000 was serially diluted, added to the assay and incubated for 60 minutes at room temperature. Fluorescence polarization was detected with a SpectraMax Paradigm plate reader (Molecular Devices, Sunnyvale, Calif.) using the Rhodamine FP detection cartridge (535 nm/595 nm). Data was analyzed using GraphPad Prism and Ki determined using One Site Ki Curve fitting model.
Peptides were evaluated for competition with R4007, a probe consisting of TAMRA-labeled R4000, using a fluorescence polarization (FP) competition assay. The assay was performed in 384-well black, non-binding plates (Greiner Bio-One, Monroe, N.C.). GMPPNP-loaded H-Ras or GTP- loaded K-Ras, diluted in FP assay buffer (20 mM Tris-HCl, pH 7.5, 50 mM NaCl, 5 mM MgCl2, 1 mM EDTA, 0.002% Triton-X-100) for a final concentration of 120 nM was incubated with 30 nM probe for 20 minutes at room temperature. Peptides were serially diluted, added to the assay and incubated for 60 minutes at room temperature. Fluorescence was detected with a SpectraMax Paradigm plate reader (Molecular Devices, Sunnyvale, Calif.) using the Rhodamine FP detection cartridge (535 nm/595 nm). Data was analyzed and Ki determined using a One Site Ki Curve fitting model. Percent inhibition for each data point was calculated relative to the maximal binding in test compound-free control wells (showing no probe displacement) and Ras-free control wells (showing no probe binding) and the half-maximal inhibitory concentration (IC50), based on probe displacement, was determined.

Molecule	IC50 [nM]
C=CC(=O)NCc1cn(C[C@H](NC(=O)[C@H](C)NC(=O)[C@@H](NC(=O)[C@H](Cc2ccc(O)cc2)NC(=O)[C@H](CO)NC(=O)[C@H](CCC)NC(C)=O)C(C)(C)C)C(=O)N(C)[C@@H](C)C(=O)NC(C(=O)N[C@@H](Cc2c[nH]c3ncccc23)C(=O)N[C@@H](Cc2ccc(O)cc2)C(=O)N(C)[C@@H](Cc2ccc(F)cc2)C(=O)N(C)CC(=O)N[C@@H](CO)C(N)=O)c2ccccc2)nn1 (some centres unmarked) [Compound R4005, ACE-NVA-SER-TYR-TBG-ALA-DAPTZAC1-NMA-RPHG-7AW-TYR-MFF-SAR-SER-NH2]	2070
CCC[C@H](NC(C)=O)C(=O)N[C@H]1CSCc2cccc(c2)CSC[C@@H](C(N)=O)NC(=O)CN(C)C(=O)[C@H](Cc2ccc(F)cc2)N(C)C(=O)[C@H](Cc2ccc(O)cc2)NC(=O)[C@H](Cc2c[nH]c3ncccc23)NC(=O)[C@H](c2ccccc2)NC(=O)[C@H](C)N(C)C(=O)[C@H](C)NC(=O)[C@H](CCCCN)NC(=O)[C@H](C(C)(C)C)NC(=O)[C@H](Cc2ccc(O)cc2)NC1=O (relative stereo) [Compound R4126, ACE-NVA-CYS*-TYR-TBG-LYS-ALA-NMA-PHG-7AW-TYR-MFF-SAR-CYS*-NH2]	127
CCC[C@H](N)C(=O)N[C@H]1CSCc2cccc(c2)CSC[C@@H](C(=O)N[C@H](CO)C(=O)N[C@@H](CCCCN)C(=O)NCC(=O)N[C@@H](CS)C(=O)N[C@H](C(=O)N[C@H](C(=O)N[C@@H](CCSC)C(=O)O)[C@@H](C)CC)C(C)C)NC(=O)CN(C)C(=O)[C@H](Cc2ccc(F)cc2)N(C)C(=O)[C@H](Cc2ccc(O)cc2)NC(=O)[C@H](Cc2c[nH]c3ncccc23)NC(=O)[C@H](c2ccccc2)NC(=O)[C@H](C)N(C)C(=O)[C@H](Cc2c[nH]cn2)NC(=O)[C@H](CCCCN)NC(=O)[C@H](C(C)(C)C)NC(=O)[C@H](Cc2ccc(O)cc2)NC1=O (relative stereo) [Compound R4114, NVA-CYS*-TYR-TBG-LYS-HIS-NMA-PHG-7AW-TYR-MFF-SAR-CYS*-DSER-LYS-GLY-CYS-VAL-ILE-MET]	32.7
CCC[C@H](NC(=O)CCCC(=O)O)C(=O)N[C@H]1CSCc2cccc(c2)CSC[C@@H](C(N)=O)NC(=O)CN(C)C(=O)[C@H](Cc2ccc(F)cc2)N(C)C(=O)[C@H](Cc2ccc(O)cc2)NC(=O)[C@H](Cc2c[nH]c3ncccc23)NC(=O)[C@H](c2ccccc2)NC(=O)[C@H](C)N(C)C(=O)[C@H](Cc2c[nH]cn2)NC(=O)[C@H](CCCCN)NC(=O)[C@H](C(C)(C)C)NC(=O)[C@H](Cc2ccc(O)cc2)NC1=O (relative stereo) [Compound R4103, GLA-NVA-CYS*-TYR-TBG-LYS-HIS-NMA-PHG-7AW-TYR-MFF-SAR-CYS*-NH2]	2
C#CC[C@@H]1NC(=O)CN(C)C(=O)[C@H](Cc2ccc(F)cc2)N(C)C(=O)[C@H](Cc2ccc(O)cc2)NC(=O)[C@H](Cc2c[nH]c3ncccc23)NC(=O)[C@H](c2ccccc2)NC(=O)[C@H](C)N(C)C(=O)[C@H](Cc2c[nH]cn2)NC(=O)[C@H](CCCCN)NC(=O)[C@H](C(C)(C)C)NC(=O)[C@H](Cc2ccc(O)cc2)NC(=O)COCCOCCNC1=O [Compound R4130, PEG1*-TYR-TBG-LYS-HIS-NMA-PHG-7AW-TYR-MFF-SAR-PRG*] (cyclo([AEEA]Y[Tle]KH[NMeA][Phg][Trp(7-aza)]Y[NMePhe(4-F)][Sar][Pra]))	268
CCC[C@H](NC(C)=O)C(=O)N[C@H]1CSCc2cccc(c2)CSC[C@@H](C(N)=O)NC(=O)[C@H](C)N(C)C(=O)[C@H](Cc2ccc(F)cc2)N(C)C(=O)[C@H](Cc2ccc(O)cc2)NC(=O)[C@H](Cc2c[nH]c3ncccc23)NC(=O)[C@@H](c2ccccc2)NC(=O)[C@H](C)N(C)C(=O)[C@H](Cc2c[nH]cn2)NC(=O)[C@H](CCCCN)NC(=O)[C@H](C(C)(C)C)NC(=O)[C@H](Cc2ccc(O)cc2)NC1=O (relative stereo) [Compound R4121, ACE-NVA-CYS*-TYR-TBG-LYS-HIS-NMA-DPHG-7AW-TYR-MFF-NMA-CYS*-NH2]	73
CCC[C@H](NC(C)=O)C(=O)N[C@H]1CSCc2cccc(c2)CSC[C@@H](C(N)=O)NC(=O)[C@H](CO)N(C)C(=O)[C@H](Cc2ccc(F)cc2)N(C)C(=O)[C@H](Cc2ccc(O)cc2)NC(=O)[C@H](Cc2c[nH]c3ncccc23)NC(=O)[C@H](c2ccccc2)NC(=O)[C@H](C)N(C)C(=O)[C@H](Cc2c[nH]cn2)NC(=O)[C@H](CCCCN)NC(=O)[C@H](C(C)(C)C)NC(=O)[C@H](Cc2ccc(O)cc2)NC1=O (relative stereo) [Compound R4118, ACE-NVA-CYS*-TYR-TBG-LYS-HIS-NMA-PHG-7AW-TYR-MFF-NMS-CYS*-NH2]	51.5

Other lines, results leading:

IC50 [nM]	Molecule
608	CCC[C@H](NC(C)=O)C(=O)N[C@H]1CSCc2cccc(c2)CSC[C@@H](C(N)=O)NC(=O)CN(C)C(=O)[C@H](Cc2ccc(F)cc2)N(C)C(=O)[C@H](Cc2ccc(O)cc2)NC(=O)[C@H](Cc2c[nH]c3ncccc23)NC(=O)[C@H](c2ccccc2)NC(=O)[C@H](C)N(C)C(=O)[C@H](CCN)NC(=O)[C@H](C)NC(=O)[C@H](C(C)(C)C)NC(=O)[C@H](Cc2ccc(O)cc2)NC1=O (relative stereo) [Compound R4140, ACE-NVA-CYS*-TYR-TBG-ALA-DBA-NMA-PHG-7AW-TYR-MFF-SAR-CYS*-NH2]
346	CCC[C@H](NC(C)=O)C(=O)N[C@H]1CSCc2cccc(c2)CSC[C@@H](C(N)=O)NC(=O)CN(C)C(=O)[C@H](Cc2ccc(F)cc2)N(C)C(=O)[C@H](Cc2ccc(O)cc2)NC(=O)[C@H](Cc2c[nH]c3ncccc23)NC(=O)[C@H](c2ccccc2)NC(=O)[C@H](C)N(C)C(=O)[C@H](Cc2c[nH]cn2)NC(=O)[C@H](CCCCNC(=O)c2ccc(N(C)C)cc2)NC(=O)[C@H](C(C)(C)C)NC(=O)[C@H](Cc2ccc(O)cc2)NC1=O (relative stereo) [Compound R4134, ACE-NVA-CYS*-TYR-TBG-DMABZK1-HIS-NMA-PHG-7AW-TYR-MFF-SAR-CYS*-NH2]
461	CCC[C@H](NC(=O)CCCC(=O)O)C(=O)N[C@H]1CSCc2cccc(c2)CSC[C@@H](C(N)=O)NC(=O)CN(C)C(=O)[C@H](Cc2ccc(F)cc2)N(C)C(=O)[C@H](Cc2ccc(O)cc2)NC(=O)[C@H](Cc2c[nH]c3ncccc23)NC(=O)[C@H](c2ccccc2)NC(=O)[C@H](C)N(C)C(=O)[C@H](Cc2c[nH]cn2)NC(=O)[C@H](CCCCNC(CC(C)C)=C2C(=O)CC(C)(C)CC2=O)NC(=O)[C@H](C(C)(C)C)NC(=O)[C@H](Cc2ccc(O)cc2)NC1=O (relative stereo) [Compound R4138, GLA-NVA-CYS*-TYR-TBG-LYS-(DDE)-HIS-NMA-PHG-7AW-TYR-MFF-SAR-CYS*-NH2]
28300	CCC[C@H](NC(C)=O)C(=O)N[C@H]1CSCc2cccc(c2)CSC[C@@H](C(N)=O)NC(=O)CN(C)C(=O)[C@H](Cc2ccc(F)cc2)N(C)C(=O)[C@H](Cc2ccc(O)cc2)NC(=O)[C@H](Cc2c[nH]c3ncccc23)NC(=O)[C@H](c2ccccc2)NC(=O)[C@H](C)N(C)C(=O)[C@H](Cc2c[nH]cn2)NC(=O)[C@H](CCCCN)NC(=O)[C@H](C(C)(C)C)NC(=O)[C@H](C)NC1=O (relative stereo) [Compound R4152, ACE-NVA-CYS*-ALA-TBG-LYS-HIS-NMA-PHG-7AW-TYR-MFF-SAR-CYS*-NH2]
12200	ACE-NVA-SER-TYR-TBG-ALA-DAPTZAC2-NMA-RPHG-7AW-TYR-MFF-SAR-SER-NH2 (Ac-[Nva]SY[Tle]A[DAPTZAC2][NMeA][ξPhg][Trp(7-aza)]Y[NMePhe(4-F)][Sar]S-NH2) [Compound R4151, linear]
1640	CCC[C@H](NC(C)=O)C(=O)N[C@H]1CSCc2cccc(c2)CSC[C@@H](C(=O)NCC(=O)NCC(=O)NCC(=O)N[C@@H](CS)C(=O)N[C@H](C(=O)N[C@H](C(=O)N[C@@H](CCSC)C(=O)O)[C@@H](C)CC)C(C)C)NC(=O)CN(C)C(=O)[C@H](C)N(C)C(=O)[C@H](Cc2ccc(O)cc2)NC(=O)[C@H](Cc2c[nH]c3ncccc23)NC(=O)[C@H](C)NC(=O)[C@H](C)N(C)C(=O)[C@H](Cc2c[nH]cn2)NC(=O)[C@H](CCCCN)NC(=O)[C@H](C(C)(C)C)NC(=O)[C@H](Cc2ccc(O)cc2)NC1=O (relative stereo) [Compound R4143, ACE-NVA-CYS*-TYR-TBG-LYS-HIS-NMA-ALA-7AW-TYR-NMA-SAR-CYS*-GLY-GLY-GLY-CYS-VAL-ILE-MET]
411	C#CC[C@@H]1NC(=O)CN(C)C(=O)[C@H](Cc2ccc(F)cc2)N(C)C(=O)[C@H](Cc2ccc(O)cc2)NC(=O)[C@H](Cc2c[nH]c3ncccc23)NC(=O)[C@H](c2ccccc2)NC(=O)[C@H](C)N(C)C(=O)[C@H](Cc2c[nH]cn2)NC(=O)[C@H](CCCCN)NC(=O)[C@H](C(C)(C)C)NC(=O)[C@H](Cc2ccc(O)cc2)NC(=O)CCCCCNC1=O [Compound R4137, AHX*-TYR-TBG-LYS-HIS-NMA-PHG-7AW-TYR-MFF-SAR-PRG*] (cyclo([Ahx]Y[Tle]KH[NMeA][Phg][Trp(7-aza)]Y[NMePhe(4-F)][Sar][Pra]))
